Where two headings read alike, the source gives them in different places.
How the values were obtained:
[1] = test system: passive cutaneous anaphylaxis (PCA); test: Passive cutaneous anaphylaxis (PCA) in mice; assay type: in vivo, mouse; settings: glyburide 2.5 mg/kg i.p. 3 h prior to PCA induction
sepsis = settings: in vivo; cited from earlier work
peanut allergy = test: Peanut allergy desensitization by microneedle arrays; assay type: in vivo, mouse; settings: delivered with peanut antigen by microneedle arrays to sensitized mice
IL10-eGFP^+ MCs = test: IL-10-GFP expression in skin mast cells of VERT-X reporter mice; assay type: in vivo, mouse; settings: with and without PCA induction
Experimental: C6(Cg)-IL10^tm1.1.Karp/J (VERT-X) mice (Jackson Laboratories) were bred at the University of Pittsburgh. On d0, mice were treated with vehicle on one ear and IgE on the contralateral ear. On day 1, mice were treated with either NKA ([…]) on both ears or vehicle on both ears. Three hours later, PCA was induced. On day 2, mice were euthanized. Excised Ear tissue was digested in IMDM media (Life Technologies) containing collagenase D (Sigma, 1.0 mg/mL) and DNAase (Roche, 1.0 mg/mL) at 37 C for 45 minutes. Single cell homogenates were blocked with FcBlock and stained. In some experiments, avidin AlexaFluro488 was injected intradermally to label cutaneous mast cells were labelled in vivo. Mice were euthanized 7 days after injection.
In other methods, mast cells differentiated for 5-7 weeks (BMMCs) or 3-4 weeks (PMCs) were collected, blocked with FcBlock and stained with anti-FceRI PE (clone MAR-1, Biolegend), anti-CD117 eFluor 450 clone 2B8, ThermoFisher) and anti-NK2R Alexa Fluor 647 or rabbit IgG Alexa Fluor 647 isotype control (Cell Signaling Technology). […]

ABCA1 [2] = test: Surface ABCA1 expression on activated PMCs (flow cytometry); assay type: cell-based, murine; settings: 30 minutes after IgE-initiated activation; NKA 1000 nM
Experimental: (§1) MCs were collected and washed with PBS containing 0.5% BSA and 0.1% sodium azide. Non-specific binding was inhibited using FcBlock (PBS with 2.0% goat serum and 0.25 mg/mL anti-CD16/32 (clone 2.4G2, BD Biosciences). Surface staining was done with anti-CD117 eFluor450 (clone 2B8, ThermoFisher), anti-FcεRI FITC (clone MAR-1, ThermoFisher) and anti-ABCA1 Alexa Fluor 647 (clone 5A1-1422, BioRad). Cells were washed with Wash Buffer (PBS with 0.5% BSA and 0.1% sodium azide). To detect differences in granulated proteins at the cell surface, IgE-loaded MCs were activated with DNP-HSA with or without NKA in Tyrode's Buffer for 30 min, washed with Wash Buffer then stained with Avidin Alexa Fluor488 (Invitrogen, Av488, 0.8 μg/5×10^5 cells) and anti-LAMP-1 PE (clone eBio 1D48, ThermoFisher). Data were acquired on either a LSRII or a Fortessa (BD BioSciences). Analysis was performed with FlowJo v10.4 (BD Biosciences).

BMMCs [3] = test: β-hexosaminidase release from BMMCs; assay type: cell-based, murine; settings: incubated with NKA or activated with IgE and antigen in the presence of NKA
Experimental: (§2) Mast cells (5×10^5-1×10^6) were loaded with IgE ([…]) for a minimum of 3 h in Tyrode's Buffer. Neurokinin A ([…]) was added with DNP-HSA (Sigma, as indicated or 100 ng/mL) for 40 min at 37 C. Cells and supernatants were collected, cell pellets were lysed in Tyrode's Buffer by freeze-thawing then incubated with p-nitrophenyl N-acetyl j-D-glucosaminide (EMB Millipore, 5 mM) dissolved in citrate buffer (0.04 M, pH 4.5) for 90 minutes. The enzymatic reaction was stopped with glycine (0.4 M, pH 10.7). Absorbance at 450 nm was read. The average percentage of b-hexosaminidase release from triplicate values was calculated as (ODsup/ODsup+ODlysate)×100(%).

ABCA1 [4] = test: Surface ABCA1 expression on activated BMMCs (flow cytometry); assay type: cell-based, murine; settings: 30 minutes after IgE-initiated activation; NKA 1000 nM
Experimental: as §1

BMMCs [5] = test: MS/MS shotgun proteomics on BMMC releasate; assay type: cell-based, murine
Experimental: BMMCs (4×10^6) were activated in Tyrode's Buffer without BSA (500 μl) for 1 hour. Protease Inhibitor Cocktail (Sigma, containing aprotinin, bestatin, E-64, leupeptin and pepstatin A) was added to cell free supernatants. Supernatants were concentrated using Amicon Ultra Centrifugal Filters-3K (EID Millipore). Protein concentrations were quantified with the BCA Protein Assay Kit (ThermoFisher). Tryptic peptides were generated with the filter-aided sample preparation method, desalted with C18 spin columns and dried in aspeedvac. Peptides were reconstituted in 0.5% formic acid in 96:4 water:acetonitrile and resolved with liquid chromatography tandem mass spectrometry with a system composed of a Waters nanoACQUITY UPLC in-line with a Q-Exactive mass spectrometer (ThermoFisher). Solvent A (0.1% formic acid in water, Burdick & Jackson) and solvent B (0.1% formic acid in acetonitrile, Burdick & Jackson) were used as the mobile phase. Peptides were then eluted from a capillary column (100 μm inner diameter×100 mm long; ACQUITY UPLC M-Class Peptide BEH C18 Column, 1.7-μm particle size, 300 Å (Waters), and resolved using a 100-min gradient at a flow rate of 0.9 μL/min (4-33% B for 90 min, 33-80% B for 2 min, constant at 80% B for 6 min, and then 80-0% B for 2 min to equilibrate the column). Data were collected in positive ionization mode. PEAKSX software was used to sequence and identify peptides in each sample using a decoy search at a 1.0% false discovery rate using the UniProt murine database. Label-free quantitation was performed using the quantitative module in the PEAKSX software. The MS proteomics data have been deposited to the ProteomeXchange Consortium via the PRIDE partner repository with the dataset identifier PXD021377. Pathway analysis for expressed proteins was done using the Panther Classification System.

[6] = test system: allergic contact hypersensitivity (CHS); settings: NKA administration, cited from earlier work
[7] = test system: mucosal MCs from the lung; settings: cited from earlier work
PMCs = test: β-hexosaminidase release from PMCs; assay type: cell-based, murine; settings: incubated with NKA or activated with IgE and antigen in the presence of NKA
Experimental: as §2

| Molecule | ear thickness at 2 h [1] | levels of IL-13 in the skin ([1]; 24 hours) | levels of TNF in the skin ([1]; 24 hours) | effect in diabetic patients in sepsis (sepsis) | allergy to peanut allergen after CPE challenge (peanut allergy) | increase in percentage of IL10-eGFP^+ MCs (IL10-eGFP^+ MCs) | ABCA1 detected on the cell surface (ABCA1 [2]) | β-hexosaminidase release (BMMCs [3]) | ABCA1 detected on the cell surface (ABCA1 [4]) | release of proteases β-hexosaminidase, MC carboxypeptidase, cathepsin D and chymase (BMMCs [5]) | release of proteins associated with metabolism and cellular function pathways (pathway analysis) (BMMCs [5]) | number of proteins upregulated by NKA (BMMCs [5]; BMMCs activated 60 minutes) | catalytic subunit of calpain 1 in releasate (BMMCs [5]; BMMCs activated in the presence of NKA) | allergic contact hypersensitivity (CHS) in the skin [6] | allergic contact hypersensitivity (CHS) in the skin ([6]; listed as Neurokinin A) | histamine release [7] | β-hexosaminidase release (PMCs) |
| --- | --- | --- | --- | --- | --- | --- | --- | --- | --- | --- | --- | --- | --- | --- | --- | --- | --- |
| COc1ccc(Cl)cc1C(=O)NCCc1ccc(S(=O)(=O)NC(=O)NC2CCCCC2)cc1 [glyburide, reference compound] | significantly reduced | diminished | diminished | anti-inflammatory and protective | desensitizes | – | – | – | – | – | – | – | – | – | – | – | – |
| Neurokinin A [NKA] | – | – | – | – | – | two-fold | reduced the level of ABCA1 | no difference | reduced the level of ABCA1 | unchanged | inhibited | 94 | not detected | blocks | inhibits inflammation | induces histamine release | no difference |

— patent US20240238228A1, “COMPOSITIONS AND METHODS FOR TREATING ALLERGIES AND INFLAMMATORY CONDITIONS” (UNIVERSITY OF PITTSBURGH-OF THE COMMONWEALTH SYSTEM OF …, priority 2021, published 2024)
